Tests used:
[1] = Removal test of heavy metals of active ingredients (pig skin, ICP-MS): Pb; details: contaminated pig skin
Protocol: (§1) (1) Preparation of Heavy Metal Contamination Sources and Pig Skin Samples
(§2) A pig was slaughtered, flayed and the bristle was shaved. The pig skin was cut to prepare 5*5 cm size of skin samples respectively.
(§3) The said skin samples were cleanly wiped with wet gauze, and then, added to 50 ml of methanol and extracted by shaking with ultrasonic for 60 min. 50 ml of methanol was further added and mixed. The pig skin samples were removed from the extracted solutions to prepare the test solutions.
(§4) The test solutions were analyzed for heavy metal components using an inductively coupled plasma mass spectrometer (ICP-MS, Xseries™ 2, Thermo Fisher Scientific, UK).

[2] = Removal test of heavy metals of active ingredients (pig skin, ICP-MS): Cu; details: contaminated pig skin
Protocol: as §1, §2, §3, §4

[3] = Removal test of heavy metals of active ingredients (pig skin, ICP-MS): Cd; details: contaminated pig skin
Protocol: as §1, §2, §3, §4

human skin = test: Skin irritation test of active ingredient (patch method, CTFA guidelines); format: in vivo; design: key to Degree of irritation: 0–0.1 none, 0.11–0.3 weak, 0.31–0.5 moderate, ≥0.51 strong irritation; details: 20 people, patch 24 hours; for Test result(number of subject) (+): (+): Apparent reddening than periphery; for Test result(number of subject) (++): (++): More reddened and swollen than periphery; for Test result(number of subject) (±): (±): slightly reddish than the periphery; for Test result(number of subject) (−): (−): No erythema or particularly no symptoms
Protocol: A total of 20 people (10 men and 10 women in their 20 s and 30 s) were tested for skin irritation using the patch method according to the guidelines of CTFA (The Cosmetic, Toiletry & Fragrance Association, Inc. Washington, D.C.).
A filter paper disk was placed in an 8 mm diameter, 10 panels of pin chamber.
After 24 hours, the pin chamber was removed, and skin conditions were visually observed.
[Criteria for Skin Irritation]
(−): No erythema or particularly no symptoms; (±): slightly reddish than the periphery; (+): Apparent reddening than periphery; (++): More reddened and swollen than periphery.
[Grade for Skin Irritation]
Degree of irritation 0-0.1: Grade I (unstimulated);
Degree of irritation 0.11-0.3: Grade II (weakly stimulated);
Degree of irritation 0.31-0.5: Grade III (moderately stimulated);
Degree of irritation 0.51 or more: Grade IV (strongly stimulated)

[4] = Formaldehyde removing ability test (GC); details: 2.0% formaldehyde solution; for Area (mAU*min) 30 min: formaldehyde GC area after 30 min; for Area (mAU*min) 30 min / Area (mAU*min) 180 min: 3 molar equivalents, room temperature; for Area (mAU*min) 180 min: formaldehyde GC area after 180 min; for Area (mAU*min) Initial: formaldehyde GC area, initial state, 3 molar equivalents of compound

Row | SMILES | Removal of Heavy metals Pb (%) ([1]; 0.1 wt % aqueous solution) | Removal of Heavy metals Pb (%) ([1]; 0.5 wt % aqueous solution) | Removal of Heavy metals Pb (%) ([1]; 1.0 wt % aqueous solution) | Removal of Heavy metals Cu (%) ([2]; 0.1 wt % aqueous solution) | Removal of Heavy metals Cu (%) ([2]; 0.5 wt % aqueous solution) | Removal of Heavy metals Cu (%) ([2]; 1.0 wt % aqueous solution) | Removal of Heavy metals Cd (%) ([3]; 0.1 wt % aqueous solution) | Removal of Heavy metals Cd (%) ([3]; 0.5 wt % aqueous solution) | Removal of Heavy metals Cd (%) ([3]; 1.0 wt % aqueous solution) | Degree of irritation (human skin; 0.1 wt %) | Grade (human skin; 0.1 wt %) | Test result(number of subject) (+) (human skin; 0.1 wt %) | Test result(number of subject) (++) (human skin; 0.1 wt %) | Test result(number of subject) (±) (human skin; 0.1 wt %) | Test result(number of subject) (−) (human skin; 0.1 wt %) | Degree of irritation (human skin; 0.5 wt %) | Grade (human skin; 0.5 wt %) | Test result(number of subject) (+) (human skin; 0.5 wt %) | Test result(number of subject) (++) (human skin; 0.5 wt %) | Test result(number of subject) (±) (human skin; 0.5 wt %) | further results
1 | O=C(O)CN(CCN(CC(=O)O)CC(=O)O)CC(=O)O [1(EDTA), Ethylenediaminetetraacetic acid, reference compound] | 84.3% | 88.3% | 89.6% | 86.5% | 88.6% | 89.2% | 82.3% | 87.3% | 88.3% |  |  |  |  |  |  |  |  |  |  |  | 
2 | O=C(O)c1ccc(N(CCN(CCN(c2ccc(C(=O)O)cc2)c2ccc(C(=O)O)cc2)c2ccc(C(=O)O)cc2)CCN(c2ccc(C(=O)O)cc2)c2ccc(C(=O)O)cc2)cc1 [Embodiment 2, 4,4′,4″,4′″-(((ethane-1,2-diylbis((4-carboxyphenyl)azanediyl))bis(ethane-2,1-diyl))bis(azanetriyl))tetrabenzoic acid] | 86.4% | 88.6% | 89.0% | 93.5% | 95.8% | 96.9% | 87.3% | 89.7% | 90.5% | 0 | I (Degree of irritation 0-0.1: Grade I (unstimulated)) | 0 | 0 | 0 | 20 | 0 | I (Degree of irritation 0-0.1: Grade I (unstimulated)) | 0 | 0 | 0 | Test result(number of subject) (−) (human skin; 0.5 wt %): 20; Degree of irritation (human skin; 1.0 wt %): 0.05; Grade (human skin; 1.0 wt %): I (Degree of irritation 0-0.1: Grade I (unstimulated)); Test result(number of subject) (+) (human skin; 1.0 wt %): 0; Test result(number of subject) (++) (human skin; 1.0 wt %): 0; Test result(number of subject) (±) (human skin; 1.0 wt %): 1; Test result(number of subject) (−) (human skin; 1.0 wt %): 19; Area (mAU*min) 30 min [4]: 0.168 mAU*min; Area (mAU*min) 180 min [4]: 0 mAU*min; Area (mAU*min) Initial [4]: 0.305 mAU*min
3 | O=C(O)CN1CCCN(CC(=O)O)CCN(CC(=O)O)CCCN(CC(=O)O)CC1 [Embodiment 9, 2,2′,2″,2′″-(1,4,8,11-tetraazacyclotetradecane-1,4,8,11-tetrayl)tetraacetic acid] | 88.9% | 91.0% | 91.4% | 94.3% | 96.9% | 97.3% | 89.1% | 91.3% | 91.9% | 0 | I (Degree of irritation 0-0.1: Grade I (unstimulated)) | 0 | 0 | 0 | 20 | 0 | I (Degree of irritation 0-0.1: Grade I (unstimulated)) | 0 | 0 | 0 | Test result(number of subject) (−) (human skin; 0.5 wt %): 20; Degree of irritation (human skin; 1.0 wt %): 0.10; Grade (human skin; 1.0 wt %): I (Degree of irritation 0-0.1: Grade I (unstimulated)); Test result(number of subject) (+) (human skin; 1.0 wt %): 0; Test result(number of subject) (++) (human skin; 1.0 wt %): 0; Test result(number of subject) (±) (human skin; 1.0 wt %): 2; Test result(number of subject) (−) (human skin; 1.0 wt %): 18; Area (mAU*min) 30 min [4]: 0.182 mAU*min; Area (mAU*min) 180 min [4]: 0 mAU*min; Area (mAU*min) Initial [4]: 0.305 mAU*min
4 | O=C(O)c1ccc(N(CCN(CCN(c2ccc(C(=O)O)o2)c2ccc(C(=O)O)o2)c2ccc(C(=O)O)o2)CCN(c2ccc(C(=O)O)o2)c2ccc(C(=O)O)o2)o1 [Embodiment 4, 5,5′,5″,5′″-(((ethane-1,2-diylbis((5-carboxyfuran-2-yl)azanediyl))bis(ethane-2,1-diyl))bis(azanetriyl))tetrakis(furan-2-carboxylic acid)] | 86.2% | 89.7% | 90.8% | 92.5% | 96.2% | 97.2% | 87.7% | 90.6% | 91.8% | 0 | I (Degree of irritation 0-0.1: Grade I (unstimulated)) | 0 | 0 | 0 | 20 | 0 | I (Degree of irritation 0-0.1: Grade I (unstimulated)) | 0 | 0 | 0 | Test result(number of subject) (−) (human skin; 0.5 wt %): 20; Degree of irritation (human skin; 1.0 wt %): 0.05; Grade (human skin; 1.0 wt %): I (Degree of irritation 0-0.1: Grade I (unstimulated)); Test result(number of subject) (+) (human skin; 1.0 wt %): 0; Test result(number of subject) (++) (human skin; 1.0 wt %): 0; Test result(number of subject) (±) (human skin; 1.0 wt %): 1; Test result(number of subject) (−) (human skin; 1.0 wt %): 19; Area (mAU*min) 30 min [4]: 0.173 mAU*min; Area (mAU*min) 180 min [4]: 0 mAU*min; Area (mAU*min) Initial [4]: 0.305 mAU*min
5 | C1CNCCNCCNCCN1 [Cyclen, 1,4,7,10-tetraazacyclododecane] | 91.7% | 93.7% | 94.3% | 93.1% | 96.6% | 97.8% | 88.6% | 91.1% | 91.4% | 0 | I (Degree of irritation 0-0.1: Grade I (unstimulated)) | 0 | 0 | 0 | 20 | 0 | I (Degree of irritation 0-0.1: Grade I (unstimulated)) | 0 | 0 | 0 | Test result(number of subject) (−) (human skin; 0.5 wt %): 20; Degree of irritation (human skin; 1.0 wt %): 0.15; Grade (human skin; 1.0 wt %): II (Degree of irritation 0.11-0.3: Grade II (weakly stimulated)); Test result(number of subject) (+) (human skin; 1.0 wt %): 1; Test result(number of subject) (++) (human skin; 1.0 wt %): 0; Test result(number of subject) (±) (human skin; 1.0 wt %): 1; Test result(number of subject) (−) (human skin; 1.0 wt %): 18; Area (mAU*min) 30 min [4]: 0.181 mAU*min; Area (mAU*min) 180 min [4]: 0 mAU*min; Area (mAU*min) Initial [4]: 0.305 mAU*min

— patent US11090247B2, “Compositions for protecting the skin from heavy metals and formaldehyde” (FNG RESEARCH CO., LTD., priority 2016, dated 2021)
